Experimental data: article PMC8270338, “Exploring New Scaffolds for the Dual Inhibition of HIV-1 RT Polymerase and Ribonuclease Associated Functions” (Molecules, 2021)
Where a name gives a salt, the structure may show the parent alone. Read-outs that look alike come from different tables or passages of the source.

Assays:
[1] = target: T1, HIV-1 RT-associated RNA-dependent DNA-polymerase (RDDP) (Human immunodeficiency virus type 1 group M subtype B, UniProt P04585); assay: biochemical; parameters: species or system HIV-1 group M subtype B
T1 construct: The full length HIV-1 RT group M subtype B was expressed and purified; made in house
Protocol: The HIV-1 RT-associated RNA-Dependent DP activity was measured as previously described. […] The enzymatic reaction was stopped by the addition of EDTA.

[2] = target: T2, HIV-1 RT-associated RNase H (Human immunodeficiency virus type 1 group M subtype B, UniProt P04585); assay: HIV-1 RT-associated DNA polymerase-independent RNase H activity determination; format: biochemical, HIV-1 group M subtype B; conditions: full length HIV-1 wt RT, no pre-incubation with the enzyme, 1 h at 37 °C; concentration reducing RNase H activity by 50%
T2 construct: The full length HIV-1 RT group M subtype B was expressed and purified; made in house
Protocol: The full length HIV-1 RT group M subtype B was expressed and purified as previously described. The HIV RT-associated RNase H activity was measured as described. […] Reactions were stopped by the addition of EDTA and products were measured with a Perkin–Elmer Victor 3 multilabel counter plate reader (Waltham, MA, USA) at excitation–emission wavelength of 490/528 nm (Table 1).

Structure (SMILES) | IC50 ([1]; read-out: RDDP IC50) | IC50 [2] | melting point | IC50 [1]
COc1ccc(-c2ccccc2Br)cc1C=NNc1nc(-c2ccc([N+](=O)[O-])cc2)cs1 [EMAC2067, 2-{[5-(2-bromophenyl)-2-methoxyphenyl]methylidene}hydrazin-1-yl]-4-(4-nitrophenyl)-1,3-thiazole bromide] | 30 ± 3 µM | 27 ± 5 µM | – | –
COc1ccc(-c2csc(N/N=C/c3cc(-c4ccccc4C(N)=O)ccc3OC)n2)cc1 [EMAC2060, 2-{4-methoxy-3-[(1E)-{2-[4-(4-methoxyphenyl)-1,3-thiazol-2-yl]hydrazin-1-ylidene}methyl]phenyl}benzamide bromide] | 27 ± 1 µM | 21.5 ± 3.5 µM | – | –
COc1ccc(-c2ccc(F)cc2)cc1C=NNc1nc(-c2ccc(Cl)c(Cl)c2)cs1 [EMAC2069, 4-(3,4-dichlorophenyl)-2-[-2-{[5-(4-fluorophenyl)-2-methoxyphenyl]methylidene}hydrazin-1-yl]-1,3-thiazole bromide] | 66 ± 2 µM | 52.5 ± 10.5 µM | – | –
COc1ccc(-c2ccccc2C(N)=O)cc1C=NNc1nc(-c2ccc(Cl)cc2)cs1 [EMAC2062, 2-{3-[{2-[4-(4-chlorophenyl)-1,3-thiazol-2-yl]hydrazin-1-ylidene}methyl]-4-methoxyphenyl}benzamide bromide] | 17 ± 2 µM | 8 ± 2 µM | – | –
COc1ccc(-c2ccccc2C(N)=O)cc1/C=N/Nc1nc(-c2ccc([N+](=O)[O-])cc2)cs1 (as salt: bromide) [EMAC2063, 2-{3-[(2-{4-[4-nitrophenyl]-1,3-thiazol-2-yl}hydrazin-1-ylidene)methyl]-4-methoxyphenyl}benzamide bromide] | – | – | 208 °C (dec.) | –
COc1ccc(-c2ccccc2)cc1C=NNc1nc(-c2ccc(Cl)c(Cl)c2)cs1 [EMAC2057, 4-(3,4-dichlorophenyl)-2-[2-[(2-methoxy-5-phenylphenyl)methylidene]hydrazin-1-yl]-1,3-thiazole bromide] | 88 ± 12 µM | 57 ± 5 µM | – | –
COc1ccc(-c2csc(NN=Cc3cc(-c4ccccc4Br)ccc3OC)n2)cc1 [EMAC2064, 2-{[5-(2-bromophenyl)-2-methoxyphenyl]methylidene}hydrazin-1-yl]-4-(4-methoxyphenyl)-1,3-thiazole bromide] | 32.5 ± 2.5 µM | 13 ± 4 µM | – | –
COc1ccc(-c2ccccc2C(N)=O)cc1C=NNc1nc(-c2ccc(Cl)c(Cl)c2)cs1 [EMAC2061, 2-{3-[{2-[4-(3,4-dichlorophenyl)-1,3-thiazol-2-yl]hydrazin-1-ylidene}methyl]-4-methoxyphenyl}benzamide bromide] | 19.5 ± 0.5 µM | 6.5 ± 2.5 µM | – | –
COc1ccc(-c2ccccc2C(N)=O)cc1/C=N/Nc1nc(-c2ccc([N+](=O)[O-])cc2)cs1 [EMAC2063, 2-{3-[(2-{4-[4-nitrophenyl]-1,3-thiazol-2-yl}hydrazin-1-ylidene)methyl]-4-methoxyphenyl}benzamide bromide] | – | 4.5 ± 0.5 µM | – | 8 µM
COc1ccc(-c2ccccc2Br)cc1C=NNc1nc(-c2ccc(Cl)cc2)cs1 [EMAC2066, 2-{[5-(2-bromophenyl)-2-methoxyphenyl]methylidene}hydrazin-1-yl]-4-(4-cholophenyl)-1,3-thiazole bromide] | 71.5 ± 6.5 µM | 47 ± 3 µM | – | –
COc1ccc(-c2ccc(F)cc2)cc1C=NNc1nc(-c2ccc(Cl)cc2)cs1 [EMAC2070, 4-(4-chlorophenyl)-2-[-2-{[5-(4-fluorophenyl)-2-methoxyphenyl]methylidene}hydrazin-1-yl]-1,3-thiazole bromide] | 59 ± 6 µM | 55.5 ± 1.5 µM | – | –
COc1ccc(-c2ccccc2Br)cc1C=NNc1nc(-c2ccc(Cl)c(Cl)c2)cs1 [EMAC2065, 2-{[5-(2-bromophenyl)-2-methoxyphenyl]methylidene}hydrazin-1-yl]-4-(3,4-dicholophenyl)-1,3-thiazole bromide] | 53.5 ± 15.5 µM | 15 ± 1 µM | – | –
COc1ccc(-c2ccccc2)cc1C=NNc1nc(-c2cccc(Cl)c2)cs1 [EMAC2058, 4-(3-chlorophenyl)-2-[2-[(2-methoxy-5-phenylphenyl)methylidene]hydrazin-1-yl]-1,3-thiazole bromide] | 56.5 ± 9.5 µM | 46 ± 1 µM | – | –
COc1ccc(-c2csc(NN=Cc3cc(-c4ccc(F)cc4)ccc3OC)n2)cc1 [EMAC2068, 2-[2-{[5-(4-fluorophenyl)-2-methoxyphenyl]methylidene}hydrazin-1-yl]-4-(4-methoxyphenyl)-1,3-thiazole bromide] | 61.5 ± 8.5 µM | 29.5 ± 3.5 µM | – | –
COc1ccc(-c2csc(NN=Cc3cc(-c4ccccc4)ccc3OC)n2)cc1 [EMAC2056, 2-[2-[(2-Methoxy-5-Phenylphenyl)methylidene]hydrazin-1-yl]-4-(4-Methoxyphenyl)-1,3-Thiazole Bromide] | 36 ± 5 µM | 19.5 ± 5.5 µM | – | –
COc1ccc(-c2ccccc2)cc1C=NNc1nc(-c2ccc([N+](=O)[O-])cc2)cs1 [EMAC2059, 4-(4-nitrophenyl)-2-[2-[(2-methoxy-5-phenylphenyl)methylidene]hydrazin-1-yl]-1,3-thiazole bromide] | 39.5 ± 11.5 µM | 12.8 ± 4.3 µM | – | –
COc1ccc(-c2ccc(F)cc2)cc1C=NNc1nc(-c2ccc([N+](=O)[O-])cc2)cs1 [EMAC2071, [(4-{2-[2-{[5-(4-fluorophenyl)-2-methoxyphenyl]methylidene}hydrazin-1-yl]-1,3-thiazol-4-yl}phenyl)nitroso]oxidanol bromide] | 47.5 ± 11.5 µM | 19 ± 1 µM | – | –
